What all share (type): functional
One experiment concerns Candida albicans. The experiment in a line: Minimum inhibitory concentration was measured against Candida albicans ATCC 10231 using modified Sabouraud dextrose broth; (a).
In another experiment the test system is Pichia kudriavzevii. The experiment in a line: Minimum inhibitory concentration was measured against Candida krusei ATCC 749 using modified Sabouraud dextrose broth; (a).
The next experiment deals with Aspergillus niger. The experiment in a line: Minimum inhibitory concentration was measured against Aspergillus niger KCTC 1231 using modified Sabouraud dextrose broth; (a).
A further experiment relates to Candida tropicalis. The experiment in a line: Minimum inhibitory concentration was measured against Candida tropicalis ATCC 28775 using modified Sabouraud dextrose broth; (a).
In the next experiment the test system is Aspergillus flavus. The experiment in a line: Minimum inhibitory concentration was measured against Aspergillus flavus KCCM 11899 using modified Sabouraud dextrose broth; (a).

≈ marks a conversion by molar mass, not a printed value.

Turning to `COC1=C(Sc2ccc(F)cc2)C(=O)c2[se]c(C)nc2C1=O`, the minimum inhibitory concentration (MIC) – broadly, the least concentration at which growth counts as inhibited – against Candida albicans stood at 25 µg/mL (≈ 65.4 µM); with Pichia kudriavzevii, 25 µg/mL (≈ 65.4 µM); against Aspergillus niger it was 50 µg/mL (≈ 131 µM); against Candida tropicalis, 3.2 µg/mL (≈ 8.37 µM); in the experiment with Aspergillus flavus, 50 µg/mL (≈ 131 µM).
Turning to `COC1=C(Sc2ccc(F)c(F)c2)C(=O)c2[se]c(C)nc2C1=O`, the minimal inhibitory concentration (MIC) with Candida albicans is 12.5 µg/mL (≈ 31.2 µM); in the experiment on Pichia kudriavzevii it was 6.3 µg/mL (≈ 15.7 µM); against Aspergillus niger, 25 µg/mL (≈ 62.5 µM); against Candida tropicalis, 6.3 µg/mL (≈ 15.7 µM); in the experiment on Aspergillus flavus, 25 µg/mL (≈ 62.5 µM).
For `Cc1nc2c([se]1)C(=O)C=C(Nc1ccc(Cl)cc1)C2=O`, the MIC against Candida albicans, in the experiment on Pichia kudriavzevii, in the experiment on Aspergillus niger, with Candida tropicalis and in the experiment with Aspergillus flavus was 12.5 µg/mL (≈ 35.5 µM) throughout.
Regarding `COc1ccc(NC2=CC(=O)c3[se]c(C)nc3C2=O)cc1`, the MIC with Candida albicans, in the experiment on Pichia kudriavzevii, against Aspergillus niger, with Candida tropicalis and with Aspergillus flavus was 12.5 µg/mL (≈ 36 µM) in each case.
Take `Cc1nc2c([se]1)C(=O)C=C(Nc1ccccc1)C2=O`: the minimum inhibitory concentration (MIC) against Candida albicans, against Pichia kudriavzevii, with Aspergillus niger, against Candida tropicalis and against Aspergillus flavus was 6.3 µg/mL (≈ 19.9 µM) in each case.
As for `COC1=C(Sc2ccc(Cl)cc2)C(=O)c2[se]c(C)nc2C1=O`, the minimum inhibitory concentration (MIC) was determined as 25 µg/mL (≈ 62.7 µM) with Candida albicans; 25 µg/mL (≈ 62.7 µM) in the experiment with Pichia kudriavzevii; 25 µg/mL (≈ 62.7 µM) with Aspergillus niger; 12.5 µg/mL (≈ 31.3 µM) against Candida tropicalis; 25 µg/mL (≈ 62.7 µM) against Aspergillus flavus.
As to `Cc1nc2c([se]1)C(=O)C=C(Nc1ccc(Br)cc1)C2=O`, the minimal inhibitory concentration (MIC) against Candida albicans turned out to be 12.5 µg/mL (≈ 31.6 µM); with Pichia kudriavzevii it was 50 µg/mL (≈ 126 µM); with Aspergillus niger, 25 µg/mL (≈ 63.1 µM); with Candida tropicalis it was 50 µg/mL (≈ 126 µM); against Aspergillus flavus, 50 µg/mL (≈ 126 µM).
Take `COC1=C(Sc2ccc(C)cc2)C(=O)c2[se]c(C)nc2C1=O`: the minimal inhibitory concentration (MIC) in the experiment with Candida albicans amounted to 12.5 µg/mL (≈ 33 µM); with Pichia kudriavzevii, 25 µg/mL (≈ 66.1 µM); with Aspergillus niger it was 25 µg/mL (≈ 66.1 µM); against Candida tropicalis it was 6.3 µg/mL (≈ 16.7 µM); in the experiment with Aspergillus flavus it was 50 µg/mL (≈ 132 µM).
In the case of `COC1=CC(=O)c2[se]c(C)nc2C1=O`, the MIC in the experiment with Candida albicans is 50 µg/mL (≈ 195 µM); against Pichia kudriavzevii it was 25 µg/mL (≈ 97.6 µM); against Aspergillus niger, 25 µg/mL (≈ 97.6 µM); with Candida tropicalis, 12.5 µg/mL (≈ 48.8 µM); against Aspergillus flavus it was 50 µg/mL (≈ 195 µM).
With `COC1=C(Sc2ccc(OC)cc2)C(=O)c2[se]c(C)nc2C1=O`, the minimal inhibitory concentration (MIC) in the experiment on Candida albicans was 25 µg/mL (≈ 63.4 µM); in the experiment with Pichia kudriavzevii, 12.5 µg/mL (≈ 31.7 µM); against Aspergillus niger it was 12.5 µg/mL (≈ 31.7 µM); in the experiment with Candida tropicalis, 12.5 µg/mL (≈ 31.7 µM); in the experiment with Aspergillus flavus it was 25 µg/mL (≈ 63.4 µM).
As to `COC1=C(Sc2ccccc2)C(=O)c2[se]c(C)nc2C1=O`, the MIC against Candida albicans turned out to be 6.3 µg/mL (≈ 17.3 µM); in the experiment on Pichia kudriavzevii it was 6.3 µg/mL (≈ 17.3 µM); against Aspergillus niger it was 12.5 µg/mL (≈ 34.3 µM); in the experiment with Candida tropicalis it was 6.3 µg/mL (≈ 17.3 µM); with Aspergillus flavus it was 12.5 µg/mL (≈ 34.3 µM).
In the case of `Cc1nc2c([se]1)C(=O)C=C(Nc1ccc(I)cc1)C2=O`, the minimum inhibitory concentration (MIC) with Candida albicans, with Pichia kudriavzevii, against Aspergillus niger, in the experiment on Candida tropicalis and with Aspergillus flavus was 25 µg/mL (≈ 56.4 µM) each time.
Turning to `Cc1nc2c([se]1)C(=O)C=C(Nc1cc(Cl)cc(Cl)c1)C2=O`, the MIC was 1.6 µg/mL (≈ 4.14 µM) against Candida albicans; 25 µg/mL (≈ 64.8 µM) in the experiment on Pichia kudriavzevii; 12.5 µg/mL (≈ 32.4 µM) in the experiment on Aspergillus niger; 3.2 µg/mL (≈ 8.29 µM) against Candida tropicalis; 12.5 µg/mL (≈ 32.4 µM) against Aspergillus flavus.
Turning to `Nc1nc(=O)[nH]cc1F` [FLUCYTOSINE], the MIC amounted to 12.5 µg/mL (≈ 96.8 µM) against Candida albicans; 50 µg/mL (≈ 387 µM) against Pichia kudriavzevii; 12.5 µg/mL (≈ 96.8 µM) against Aspergillus niger; 12.5 µg/mL (≈ 96.8 µM) against Candida tropicalis; 50 µg/mL (≈ 387 µM) in the experiment on Aspergillus flavus.
As for `COC1=C(Sc2ccc([N+](=O)[O-])cc2)C(=O)c2[se]c(C)nc2C1=O`, the minimal inhibitory concentration (MIC) turned out to be 3.2 µg/mL (≈ 7.82 µM) with Candida albicans; 25 µg/mL (≈ 61.1 µM) in the experiment with Pichia kudriavzevii; 50 µg/mL (≈ 122 µM) against Aspergillus niger; 1.6 µg/mL (≈ 3.91 µM) in the experiment with Candida tropicalis; 12.5 µg/mL (≈ 30.5 µM) in the experiment with Aspergillus flavus.
In the case of `Cc1nc2c([se]1)C(=O)C=C(Nc1cccc(F)c1)C2=O`, the MIC with Candida albicans came out at 12.5 µg/mL (≈ 37.3 µM); with Pichia kudriavzevii, 6.3 µg/mL (≈ 18.8 µM); against Aspergillus niger, 12.5 µg/mL (≈ 37.3 µM); against Candida tropicalis it was 3.2 µg/mL (≈ 9.55 µM); against Aspergillus flavus it was 12.5 µg/mL (≈ 37.3 µM).
Turning to `Cc1ccc(NC2=CC(=O)c3[se]c(C)nc3C2=O)cc1`, the minimum inhibitory concentration (MIC) against Candida albicans turned out to be 6.3 µg/mL (≈ 19 µM); against Pichia kudriavzevii, 25 µg/mL (≈ 75.5 µM); against Aspergillus niger it was 6.3 µg/mL (≈ 19 µM); in the experiment on Candida tropicalis, 25 µg/mL (≈ 75.5 µM); against Aspergillus flavus, 12.5 µg/mL (≈ 37.7 µM).
For `Cc1nc2c([se]1)C(=O)C=C(Nc1ccc(F)cc1)C2=O`, the minimal inhibitory concentration (MIC) was 6.3 µg/mL (≈ 18.8 µM) in the experiment with Candida albicans; 6.3 µg/mL (≈ 18.8 µM) in the experiment with Pichia kudriavzevii; 6.3 µg/mL (≈ 18.8 µM) with Aspergillus niger; 6.3 µg/mL (≈ 18.8 µM) in the experiment with Candida tropicalis; 12.5 µg/mL (≈ 37.3 µM) in the experiment with Aspergillus flavus.
In the case of `Cc1nc2c([se]1)C(=O)C=C(Nc1ccc(C(F)(F)F)cc1)C2=O`, the MIC stood at 25 µg/mL (≈ 64.9 µM) in the experiment with Candida albicans; 3.2 µg/mL (≈ 8.31 µM) in the experiment on Pichia kudriavzevii; 12.5 µg/mL (≈ 32.5 µM) in the experiment with Aspergillus niger; 3.2 µg/mL (≈ 8.31 µM) against Candida tropicalis; 25 µg/mL (≈ 64.9 µM) with Aspergillus flavus.

For the origin of these results see ChEMBL document CHEMBL1144287, “Synthesis and antifungal activity of noble 5-arylamino- and 6-arylthio-4,7-dioxobenzoselenazoles” (2005).
